Data on ten compounds can be found in US20120053053A1, “PYRIMIDINE DERIVATIVES AND THEIR USE AS HERBICIDES” (SYNGENTA CROP PROTECTION, LLC, priority 2009, published 2012).

In data set [1] the test system is Echinochloa crus-galli (ECHCG). In words: Pre-emergence biological efficacy (percentage damage). The data set is classed as in vivo. The settings on record: Echinochloa crus-galli, 312 h, evaluated after 13 days, 100=total damage, 0=no damage; for pest or weed control at 1000 g/ha: dose 1,000 g/ha. The method in brief:
(§1)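 Pre-emergence test: seeds sown in standard soil in pots, kept one day in a glasshouse (24/16° C. day/night, 14 h light, 65% humidity), then sprayed at 250 or 1000 g/ha from an acetone/water (50:50) formulation with 0.5% Tween 20. Damage scored after 13 days (0 = none, 100 = total).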

The subject of data set [2] is Amaranthus retoflexus (AMARE). Described as above. The settings on record: Amaranthus retroflexus, 312 h, evaluated after 13 days, 100=total damage, 0=no damage; for pest or weed control at 1000 g/ha: dose 1,000 g/ha. The data set is classed as in vivo. The method in brief: as §1
In data set [3] the test system is Solanum nigrum (SOLNI). Described as above. Type of data set: in vivo. The settings on record: Solanum nigrum, 312 h, evaluated after 13 days, 100=total damage, 0=no damage; for pest or weed control at 1000 g/ha: dose 1,000 g/ha. The method in brief:
as §1

The subject of data set [4] is Ipomea hederaceae (IPOHE). The description is as above. Type of data set: in vivo. The settings on record: Ipomoea hederacea, 312 h, evaluated after 13 days, 100=total damage, 0=no damage; for pest or weed control at 1000 g/ha: dose 1,000 g/ha. The method, boiled down: as §1
Data set [5] has as its system Alopecurus myosuroides (ALOMY). Described as above. The data set is classed as in vivo. The settings on record: Alopecurus myosuroides, 312 h, evaluated after 13 days, 100=total damage, 0=no damage; for pest or weed control at 1000 g/ha: dose 1,000 g/ha. The method in brief: as §1
The subject of data set [6] is Setaria faberi (SETFA). The description is as above. Type of data set: in vivo. The settings on record: Setaria faberi, 312 h, evaluated after 13 days, 100=total damage, 0=no damage; for pest or weed control at 1000 g/ha: dose 1,000 g/ha. The method in brief:
as §1

Data set [7] concerns Echinochloa crus-galli (ECHCG). In words: Post-emergence biological efficacy (percentage damage). Type of data set: in vivo. The settings on record: Echinochloa crus-galli, 312 h, evaluated after 13 days, 100=total damage, 0=no damage; for pest or weed control at 1000 g/ha: dose 1,000 g/ha. The method in brief:
(§2)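 Percentage damage (0 no damage to 100 total) was assessed 13 days after spraying plants raised for 8 days in pots. Test compound was applied as an aqueous acetone/water (50:50) spray containing 0.5% Tween 20 to give 250 or 1000 g/ha.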

The test system of data set [8] is Amaranthus retoflexus (AMARE). The description is as above. The data set is classed as in vivo. The settings on record: Amaranthus retroflexus, 312 h, evaluated after 13 days, 100=total damage, 0=no damage; for pest or weed control at 1000 g/ha: dose 1,000 g/ha. The method in brief:
as §2

Data set [9] deals with Solanum nigrum (SOLNI). The data set is described as above. Type of data set: in vivo. The settings on record: Solanum nigrum, 312 h, evaluated after 13 days, 100=total damage, 0=no damage; for pest or weed control at 1000 g/ha: dose 1,000 g/ha. The method in brief:
as §2

In data set [10] the test system is Ipomea hederaceae (IPOHE). The description is as above. Type of data set: in vivo. The settings on record: Ipomoea hederacea, 312 h, evaluated after 13 days, 100=total damage, 0=no damage; for pest or weed control at 1000 g/ha: dose 1,000 g/ha. The method, boiled down:
as §2

For data set [11], the system named is Alopecurus myosuroides (ALOMY). The data set is described as above. The settings on record: Alopecurus myosuroides, 312 h, evaluated after 13 days, 100=total damage, 0=no damage; for pest or weed control at 1000 g/ha: dose 1,000 g/ha. The data set is classed as in vivo. The method in brief:
as §2

Data set [12] has as its system Setaria faberi (SETFA). Described as above. The settings on record: Setaria faberi, 312 h, evaluated after 13 days, 100=total damage, 0=no damage; for pest or weed control at 1000 g/ha: dose 1,000 g/ha. The data set is classed as in vivo. The method, boiled down:
as §2

The pest or weed control is the degree to which the test organism was suppressed or injured, in per cent. High values mean strong suppression, low ones weak suppression. Broadly, the melting point is the temperature, or range, at which the solid turns liquid. In turn, `COC(=O)c1nc(C2CC2)nc(N)c1C` [Compound 2-41] came in with a melting point of 152 to 153 °C. In data set [1], this compound registered a pest or weed control at 1000 g/ha of 20%. For the same compound, in [2], the pest or weed control at 1000 g/ha came out at 70%. In addition, the pest or weed control at 1000 g/ha in the data set on Solanum nigrum (SOLNI) [3] is 50%. Besides, in data set [4], the pest or weed control at 1000 g/ha is 60%. In data set [5], this compound yielded a pest or weed control at 1000 g/ha of 20%. Besides, the pest or weed control at 1000 g/ha in the data set on Setaria faberi (SETFA) [6] was found to be 30%. In data set [7], this compound showed a pest or weed control at 1000 g/ha of 60%. In data set [8], this compound showed a pest or weed control at 1000 g/ha of 100%. This compound also gave a pest or weed control at 1000 g/ha in the data set with Solanum nigrum (SOLNI) [9] of 90%. Moreover, in data set [10], the pest or weed control at 1000 g/ha amounted to 100%. The compound further gave a pest or weed control at 1000 g/ha in data set [11] of 40%. The compound further displayed a pest or weed control at 1000 g/ha in the data set on Setaria faberi (SETFA) [12] of 80%.
Take `COC(=O)c1nc(-c2ccc(C(C)=O)c(OC)c2F)nc(N)c1C(C)=O` [Compound 65-53, 4-Amino-2-(2-fluoro-3-methoxy-4-methylcarbonyl-phenyl)-6-methoxycarbonyl-5-methylcarbonyl-pyrimidine]: the pest or weed control at 1000 g/ha worked out at 0% in data set [1]; 0% in [2]; 0% in the data set on Solanum nigrum (SOLNI) [3]; 20% in [4]; 0% in [5]; 0% in the data set with Setaria faberi (SETFA) [6]. Besides, the pest or weed control at 1000 g/ha in [7] was found to be 10%; in data set [8] it was 20%; with Solanum nigrum (SOLNI) [9], 70%; in data set [10], 50%; in data set [11], 0%; in the data set on Setaria faberi (SETFA) [12], 10%.
As for `C=C(OCC)c1ccc(-c2nc(N)c(C(C)=O)c(C(=O)OC)n2)c(F)c1OC` [Compound 66-53, 4-amino-2-(4-[1-ethoxyethenyl]-2-fluoro-3-methoxy-phenyl)-6-methoxycarbonyl-5-methylcarbonyl-pyrimidine], the pest or weed control at 1000 g/ha in data set [1] is 0%; in data set [2], 10%; with Solanum nigrum (SOLNI) [3] it was 20%; in [4], 30%; in [5] it was 0%; in the data set with Setaria faberi (SETFA) [6] it was 0%. Besides, the pest or weed control at 1000 g/ha worked out at 0% in [7]; 20% in data set [8]; 60% in the data set with Solanum nigrum (SOLNI) [9]; 30% in [10]; 0% in data set [11]; 10% with Setaria faberi (SETFA) [12].
With `C=Cc1c(N)nc(-c2ccc(F)c(F)c2)nc1C(=O)OC` [Compound 67-61, 4-Amino-2-(3,4-difluorophenyl)-5-ethenyl-6-methoxycarbonyl-pyrimidine], the pest or weed control at 1000 g/ha in [1] is 30%; in data set [2] it was 100%; with Solanum nigrum (SOLNI) [3], 70%; in [4], 50%; in data set [5], 30%; in the data set with Setaria faberi (SETFA) [6] it was 30%. The pest or weed control at 1000 g/ha worked out at 40% in data set [7]; 100% in data set [8]; 90% in the data set with Solanum nigrum (SOLNI) [9]; 60% in [10]; 20% in [11]; 10% in the data set with Setaria faberi (SETFA) [12].
As for `C=Cc1c(N)nc(-c2ccc(C#N)cc2)nc1C(=O)OC` [Compound 68-61, 4-Amino-2-(4-cyanophenyl)-5-ethenyl-6-methoxycarbonyl-pyrimidine], the pest or weed control at 250 g/ha in data set [1] (dose 250 g/ha) was 0%; in data set [2] (dose 250 g/ha), 10%; in the data set with Solanum nigrum (SOLNI) [3] (dose 250 g/ha), 30%; in data set [4] (dose 250 g/ha), 0%; in data set [5] (dose 250 g/ha), 0%; in the data set on Setaria faberi (SETFA) [6] (dose 250 g/ha), 0%. The pest or weed control at 250 g/ha is 0% in [7] (dose 250 g/ha); 30% in data set [8] (dose 250 g/ha); 80% with Solanum nigrum (SOLNI) [9] (dose 250 g/ha); 40% in data set [10] (dose 250 g/ha); 0% in [11] (dose 250 g/ha); 0% with Setaria faberi (SETFA) [12] (dose 250 g/ha).
Turning to `C=Cc1c(N)nc(-c2ccc(C(=O)OC)cc2)nc1C(=O)OC` [Compound 69-61, 4-Amino-5-ethenyl-6-methoxycarbonyl-2-(4-methoxycarbonyl-phenyl)-pyrimidine], the pest or weed control at 1000 g/ha (in data set [1]; in data set [2]; in the data set on Solanum nigrum (SOLNI) [3]; in data set [4]; in [5]; in the data set on Setaria faberi (SETFA) [6]) was 0% each time. In addition, the pest or weed control at 1000 g/ha was determined as 0% in data set [7]; 0% in [8]; 20% in the data set with Solanum nigrum (SOLNI) [9]; 30% in data set [10]; 0% in data set [11]; 0% with Setaria faberi (SETFA) [12].
`C=Cc1c(N)nc(-c2ccc3c(c2)OCO3)nc1C(=O)OC` [Compound 70-61, 4-Amino-5-ethenyl-6-methoxycarbonyl-2-(3,4-methylenedioxy-phenyl)-pyrimidine]: the pest or weed control at 1000 g/ha in data set [1] was found to be 90%; in data set [2], 100%; in the data set with Solanum nigrum (SOLNI) [3], 100%; in data set [4], 80%; in data set [5] it was 80%; in the data set with Setaria faberi (SETFA) [6], 70%. The pest or weed control at 1000 g/ha in [7] was found to be 100%; in [8], 100%; with Solanum nigrum (SOLNI) [9], 90%; in [10], 80%; in data set [11], 100%; in the data set on Setaria faberi (SETFA) [12], 40%.
With `C=Cc1c(N)nc(-c2ccc3c(c2)OCCO3)nc1C(=O)OC` [Compound 71-61, 4-Amino-5-ethenyl-2-(3,4-ethylenedioxy-phenyl)-6-methoxycarbonyl-pyrimidine], the pest or weed control at 1000 g/ha in [1] was 20%; in data set [2] it was 0%; in the data set with Solanum nigrum (SOLNI) [3], 40%; in data set [4] it was 0%; in data set [5], 10%; in the data set with Setaria faberi (SETFA) [6], 0%. Further, the pest or weed control at 1000 g/ha in data set [7] came out at 30%; in data set [8] it was 20%; with Solanum nigrum (SOLNI) [9], 60%; in data set [10] it was 40%; in data set [11], 0%; in the data set on Setaria faberi (SETFA) [12], 0%.
For `C=Cc1c(N)nc(-c2ccc(SC)cc2)nc1C(=O)OC` [Compound 72-61, 4-Amino-5-ethenyl-6-methoxycarbonyl-2-(4-methylthiophenyl)-pyrimidine], the pest or weed control at 1000 g/ha amounted to 0% in data set [1]; 60% in data set [2]; 50% in the data set with Solanum nigrum (SOLNI) [3]; 70% in data set [4]; 0% in data set [5]; 0% in the data set on Setaria faberi (SETFA) [6]. Further, the pest or weed control at 1000 g/ha in [7] was 0%; in [8], 10%; in the data set on Solanum nigrum (SOLNI) [9], 60%; in [10] it was 50%; in [11], 10%; in the data set with Setaria faberi (SETFA) [12] it was 0%.
`C=Cc1c(N)nc(-c2ccc3ccccc3c2)nc1C(=O)OC` [Compound 73-61, 4-Amino-5-ethenyl-6-methoxycarbonyl-2-(2-naphthyl)-pyrimidine]: the pest or weed control at 1000 g/ha (in data set [1]; in data set [2]; in the data set with Solanum nigrum (SOLNI) [3]; in data set [4]; in data set [5]; in the data set on Setaria faberi (SETFA) [6]) was 0% each time. The pest or weed control at 1000 g/ha in data set [7] was found to be 0%; in data set [8] it was 20%; in the data set on Solanum nigrum (SOLNI) [9], 30%; in data set [10] it was 0%; in data set [11], 0%; with Setaria faberi (SETFA) [12], 0%.
